Laboratory results published in patent publication EP2742955A1, “Nanoparticles based on bioconjugate of GAG” (Centre National de la Recherche Scientifique, priority 2012, dated 2014).

How the values were obtained:
[1] = Permeation of Fpx across fresh intestinal tissue in Ussing-type chambers; format: in vitro ADME, male Sprague Dawley rats
Experimental: The permeation of Fpx in solution was investigated through the intestinal epithelium at 37°C, in the two directions (mucosal-to-serosal, M-S, absorptive direction and serosal-to-mucosal, S-M, secretory direction) and in presence or not of verapamil, an inhibitor of P-gp (P-glycoprotein) (Fig. 3).
Ussing-type chambers were used to evaluate the permeation of Fpx in fresh intestinal tissues, under the free form and loaded in NPs. For permeation studies non fasting male Sprague Dawley rats weighting 250 to 300 g were used. After sacrificing the rats, jejunum from fresh small intestine was excised and rinsed with chilled physiological solution (isotonic Sorensen's Phosphate buffer solution: 0.2 mM Na2HPO4; 0.2 mM NaH2PO4, H2O with a pH of 6.8). The excised intestine was cut into segments of 2 - 3 cm length and mounted in Ussing chamber (0.75 cm^2 surface area) bathed with Sorensen buffer pH 6.8 in mucosal and serosal sides. The system was maintained at 37°C and continuously oxygenated with O2/CO2 (95% /5%). After equilibration at the temperature of the experiment (15 min), Fpx in solution or loaded in NPs at the concentration of 2 mg/mL were added to the donor compartment. For this purpose, 1.2 mL of Fpx:Sq^+ NPs (at Fpx concentration of 5 mg/mL were diluted in 1.8 mL of Sorensen buffer pH 6.8 prior to the addition to the donor chamber. After 0, 30, 60, 90, 120, 150 and 180 min, 500 µL samples were taken out from the acceptor chambers and replaced with the same volume of fresh transport medium pre-equilibrated at 37°C. The samples were stored at 4°C until analysis. Fpx was quantified by the Azure A assay and Anti-Xa assay. The influence of verapamil was investigated on the intestinal permeation of Fpx in solution and loaded in NPs. For this purpose, verapamil was added to the Sorensen buffer at the concentration of 0.1 mM in the serosal compartment five minutes before the experiment.
Thus, figure 3 is a diagram showing a comparison of the permeation of Fpx across the intestinal tissue under the following experimental conditions: mucosal-to-serosal direction (M-S, continuous lines); serosal-to-mucosal direction (S-M, broken line) and in presence (open symbols) or in absence (filled symbols) of verapamil. Donor chambers contained initially 2 mg/mL of Fpx. Data represent means ± SEM of at least six independent experiments.
Donor chambers contained 2 mg/mL of Fpx and Sq^+ in molar ratio Fpx to Sq^+ 1:6. Data represent means ± SEM of at least six independent experiments.
At last, figure 5 represents a diagram showing net fluxes of Fpx in free form or in Fpx:Sq+ NPs in the presence or in the absence of verapamil when added in serosal side at 180 min. Values are indicated as means SEM at least six experiments. (** p< 0.05) Fpx:Sq^+ NPs vs Fpx:Sq NPs + verapamil; (* p< 0.05) Fpx vs Fpx:Sq^+ NPs; (**** p<0.05) Fpx + verapamil vs Fpx.

[2] = Plasma Fpx concentration (anti-FXa assay) after oral and intravenous administration of aqueous nanoparticulate suspensions; format: in vivo, male Sprague-Dawley rats
Experimental: The anticoagulant activity of Fpx:Sq^+ aqueous nanoparticulate suspensions of example 4 was evaluated in vivo after oral and intravenous (IV) administration in male Sprague-Dawley rats. The following formulations were administrated orally to the rats (n=4) with the help of feeding needle (Harvard Apparatus, France): NPs at the optimized ratio 1:6 at 25 mg/kg (eq. Fpx) and 50 mg/kg (eq. Fpx), Fpx saline solution at 50 mg/kg and isotonic sodium chloride solution as control. The volume of the administrated solution was 1 mL per 100 g of the rat weight. Blood samples were periodically taken from the jugular vein after anesthesia with isoflurane and the plasma concentration of active Fpx was estimated using an anti-FXa assay. Additionally, a saline solution of Fpx and NPs at the optimized ratio 1:6, both at 200 µg/kg (eq. Fpx) were injected intravenously to the rats (n=3) through the tail vein after anesthesia with isoflurane. Blood samples were periodically taken and the plasma concentration of active Fpx was estimated using an anti-FXa assay. […]

SMILES: CO[C@H]1O[C@H](COS(=O)(=O)O)[C@@H](O[C@@H]2O[C@@H](C(=O)O)[C@@H](O[C@H]3O[C@H](COS(=O)(=O)O)[C@@H](O[C@@H]4O[C@H](C(=O)O)[C@@H](O[C@H]5O[C@H](COS(=O)(=O)O)[C@@H](O)[C@H](O)[C@H]5NS(=O)(=O)O)[C@H](O)[C@H]4O)[C@H](OS(=O)(=O)O)[C@H]3NS(=O)(=O)O)[C@H](O)[C@H]2OS(=O)(=O)O)[C@H](O)[C@H]1NS(=O)(=O)O [Fpx, Fondaparinux]
- permeated Fpx concentration ([1]; M-S direction, 120 min, absence of verapamil, donor 2 mg/mL Fpx, 37°C): 4.5 µg/mL
- permeated Fpx concentration ([1]; M-S direction, 180 min, absence of verapamil, donor 2 mg/mL Fpx, 37°C): 4.9 µg/mL
- permeated Fpx concentration ([1]; M-S direction, 180 min, verapamil 0.1 mM in the receptor (serosal) compartment): 12.6 µg/mL
- permeated Fpx concentration ([1]; S-M direction, 180 min, absence of verapamil, donor 2 mg/mL Fpx, 37°C): 7.8 µg/mL
- factor of increase of Fpx fluxes in the presence of verapamil ([1]; net fluxes at 180 min, verapamil in serosal side, vs free Fpx): 4.2
- Cmax ([2]; male, Sprague-Dawley, rat, plasma, 200 ug/kg, intravenous, 200 µg/kg (eq. Fpx), rats n=3, read-out: maximum plasma concentration (Cmax)): 160 ng/mL
- oral absorption (concentration-time profile vs control group) ([2]; oral, saline solution 50 mg/kg): not absorbed
